Tests used:
[1] = test system: Guinea pig late asthma model; assay: Guinea pig late asthma model (ovalbumin sensitized, respiratory function sRaw/TV); assay type: in vivo; settings: 3 mg/kg orally one hour before antigen challenge
Procedure: Assessment of Compounds in Guinea Pig Late Asthma Model
The assessment was carried out using a compound obtained in Example 52.
Hartley male guinea pigs (commercially available from Japan SLC, Inc.) were pre-bred about 1 week after arrival, and then exposed by inhalation to 2% (w/v) ovalbumin (OA) saline in a plastic box (4 guniea pigs/box) for 5 minutes using a ultrasonic nebulizer (OMRON NE-U12, condition: maximum nebulizing amounts, maximum air volume), and sensitized (day 0). The same operation was carried out on day 7. On day 14 or 15, each guinea pig was administered 2% OA by inhalation for 5 minutes to initiate a response (challenge). […]
A determination and analysis of respiratory function were carried out according to the method of Penny A. Hutson et al. Am Rev Respir Dis 1988 137, 548-557. The respiratory function was determined before the antigen challenge (before drug administration) and 5 minutes and 1, 2, 3, 4, 5, 6, 7 and 8 hours after the antigen challenge, and wave profiles were imported using MacLab Chart v3.4 (AD Instruments) and analyzed later. […] The sRaw/TV values subtracting the former values were plotted against measured times, and each area under the curve (AUC4-8 hr) of each animal was calculated to compare each other in the range of 4 to 8 hours after the antigen challenge. […]

rat lung membrane SMBS = assay: Receptor-binding assessment test using rat lung membranes ([125I]-iodocyanopindolol ligand binding assay); settings: 1 μM test compound; ratio of inhibiting specific binding of [125I]-iodocyanopindolol to rat lung membrane SMBS
Procedure: Receptor-Binding Assessment Test of Compounds Using Rat Lung Membranes
The assessment test was carried out according to the method of Sugasawa, T. et al., J. Biol. Chem., 272, 21244-21252 (1997).
Preparation of Rat Lung Membranes
Lung taken out from SD male rat (7-week old under test, Charles River Laboratories Japan, Inc.) was removed trachea and blood vessels to shred and washed with iced tris-saline buffer (10 mM tris hydrochloric acid-154 mM sodium chloride, pH7.4). The resultant was homogenized by Hiscotron with ice-cold tris-saline buffer containing a homogenization buffer (1 mM ethylenediaminetetraacetic acid (EDTA), 1 mM 4-(2-aminoethyl)benzenesulfonyl fluoride (AEBSF), 5 μg/ml aprotinin, 5 μg/ml leupeptine) (maximum rate: 1 minute). The supernatant after low-speed centrifugation (1500×g, 20 minutes, 4° C.) was ultracentrifuged (100000×g, 20 minutes, 4° C.), and the pellet was suspended in tris-saline buffer to store at −80° C. The protein concentrations were determined by Bio-Rad Protein Assay Kit using bovine serum albumin (BSA) as a standard.
To each well in protein-nonabsorptive round-bottom 96-well assay plate (commercially available from Iwaki Glass Co., Ltd.) were added tris-saline buffer (200 μl) containing 1 nM [^125I]-iodocyanopindolol (commercially available from Amersham plc), 10 μM serotonine, 20 μm dl-propranolol, 10 μM phentolamine, 1.1 mM ascorbic acid and 100 μg lung membrane, and the mixture was pipetted to combine and then incubated at 37° C. for 30 minutes. The test compounds were dissolved in 100% dimethyl sulfoxide solution, and thereto was added 2 μl (final DMSO concentration: 1%). In order to calculate nonspecific binding amounts, to the mixture was added L-threo-3-(3,4-dihydroxyphenyl)-N-[3-(4-fluorophenyl)propyl]serine pyrrolidine amide at 100 μM of the final concentration as an alternative to the test compounds. During this time, 100 μl of 0.3% polyethyleneimine (PEI)/tris-saline buffer was added to MultiScreen plate (96-well B glass fiber, Millipore Cat. No. MAFB NOB10), and incubated for over 30 minutes. The resultant was filtered with aspiration (aspiration by the addition of 200 μl iced tris-saline buffer) to wash, and the reaction solutions on 96-well assay plate were filtered with aspiration to wash four times on MultiScreen plate. B glass fiber filter paper at the bottom of MultiScreen plate was punched out, and γ-ray doses of [^125I]-iodocyanopindolol trapped on the filter paper were determined as binding amounts. The binding amounts in the presence of DMSO (final concentration: 1%) were total binding amounts, and the binding amounts in the presence of 100 μM L-threo-3-(3,4-dihydroxyphenyl)-N-[3-(4-fluorophenyl)propyl]serine pyrrolidine amide were nonspecific binding amounts. The values subtracted the nonspecific binding amounts from the total binding amounts were the specific binding amounts. The binding activity of a compound was calculated according to the following formula, which was shown in the ratio of inhibiting the specific binding of [^125I]-iodocyanopindolol to rat lung membrane SMBS by the test compound.

[2] = test system: Corticosterone generation; assay: Assessment test of steroid hormone synthesis inhibition (Corticosterone generation in rat adrenal gland cells); assay type: cell-based; settings: 10 μM test article, rat adrenal cells with cAMP, 2 hours, read-out: Steroid Synthesis Inhibition Rate (%) (10 μM)
Excerpt: Assessment Test of Steroid Hormone Synthesis Inhibition
• Cell Strainer (BD Falcon®) • Cell Titer-Glo® (Promega) • Collagenase from Clostridium histolyticum (Sigma-Aldrich) • Corticosterone EIA kit (Cayman) • Dimethylsulfoxide (referred to as DMSO hereinafter) (nacalai tesque) • D-MEM (GIBCO) • DNase I (Invitrogen) • Fetal Bovine Serums (referred to as FBS hereinafter) (Bioflud) • Multiple well plates for adhesive cell culture, 96 wells (IWAKI) • N^6,2′-O-Dibutyryladenosine 3′,5′-cyclic monophosphate sodium salt (referred to as cAMP hereinafter) (Sigma) • Penicillin Streptomycin Mixed Solution (nacalai tesque)
Control examples 1 to 4: Control example 1 was Example 350 of Patent Document 2. Control examples 2 to 4 were synthesized according to Patent Document 2.
Adrenal glands were taken out from rats, and removed excess connective tissues, adiposes and membranes in D-MEM. The adrenal glands were transferred to polytubes, and quickly segmentalized with scissors. Thereto was added D-MEM containing 1 mg/mL collagenase and 0.25 μL DNase 1, and then the mixture was shaken at 37° C. for 10 minutes in 80 times/minute. Then, the mixture was pipetted by 1 mL truncated pipette tip, and shaken again under the same condition. After 10 minutes, the mixture was pipetted again by 1 mL pipette tip, and the cell suspension was filtered through metal mesh. The filtrate was centrifuged at 4° C. for 5 minutes in 500 g. The supernatant was removed, and thereto was added a mixed solution of 0.16 M NH4Cl and 0.17 M Tris-HCl in 3 mL. The mixture was let stand on ice for 5 minutes, and then centrifuged under the same condition. Then, the supernatant was removed and then thereto was added D-MEM. The cell suspension was prepared and centrifuged under the same condition. Again, the supernatant was removed and then thereto was added D-MEM to give a cell suspension. The cell suspension was filtered by Cell Strainer (BD Falcon®). The filtrate was centrifuged under the same condition. After the completion of the centrifugation, the supernatant was removed, and thereto was added D-MEM containing 1% Penicillin Streptomycin Mixed Solution and 10% FBS. The mixture was seeded in Multiple well plate for adhesive cell culture, 96 wells (IWAKI) in 10000 cells/well, and incubated at 37° C. overnight in CO2 incubator.
Test article concentrations were prepared in DMSO to 2000 μM, and D-MEM containing 20 μM test article in D-MEM was prepared.
Cell-seeded plate was incubated overnight, and then the medium was removed and thereto was added D-MEM containing 20 μM test article in 50 μL/well. Then, to the mixture was promptly added D-MEM containing 20 μM cAMP in 50 μL/well so that the final concentration of the test article was 10 μM. After the addition of 2 types of D-MEM, the mixture was incubated at 37° C. for 2 hours in CO2 incubator. After 2 hours, the supernatant (50 μL) of the medium was collected. For cells, the cell toxicity of the test article was assessed according to a conventional method using Cell Titer-Glo® (Promega). For the collected supernatant, the Corticosterone concentration in the supernatant was determined according to a conventional method using Corticosterone EIA kit (Cayman).
The inhibition rate of 10 μM test article to Corticosterone generation was calculated according to the following formula confirming that the cell toxicity by the test article was not recognized.

Binding Activity (%) (1 μM) (rat lung membrane SMBS): 59%
SMILES: CNC(=O)NCCn1c(-c2ccc(C(=O)N3CCOCC3)cc2)cs/c1=N\c1cccc(F)c1 [Example 52, N-{2-[(2Z)-2-[(3-Fluorophenyl)imino]-4-[4-(morpholin-4-ylcarbonyl)phenyl]-1,3-thiazol-3(2H)-yl]ethyl}-N′-methylurea]
AUC4-8 hr ((sRaw/TV) · h) ([1]; 4 to 8 hours after antigen challenge): 0.427 (sRaw/TV) · h
Improvement Rate (%) ([1]; AUC4-8 hr versus control group, p<0.01 Dunnett's test): 54%
inhibition at 10 µM [2]: 0%

Reference: US20110034466A1, “NOVEL FIVE-MEMBERED RING COMPOUND” (priority 2008, published 2011)
